In patent publication US20100113268A1, “SYNERGISTIC ACTIVE COMPOUND COMBINATIONS” (priority 2006, published 2010):

Test system: Meloidogyne incognita
Assay: Meloidogyne incognita test (MELGIN), gall formation on lettuce roots in soil
Assay type: in vivo
Conditions: single active compound, 100% = no galls, 0% = galls as untreated control
Protocol: Meloidogyne incognita Test (MELGIN)
To produce a suitable preparation of active compound, 1 part by weight of active compound is mixed with the stated amounts of solvent and emulsifier, and the concentrate is diluted with water to the desired concentration.
Vessels are filled with soil, solution of active compound, Meloidogyne incognita egg/larvae suspension and lettuce seeds. The lettuce seeds germinate and plants develop. On the roots, galls are formed.
After the desired period of time, the nematicidal action is determined in % by the formation of galls. 100% means that no galls have been found; 0% means that the number of galls on the treated plants corresponds to that of the untreated control.

CN/C(=N\[N+](=O)[O-])NCc1cnc(Cl)s1 [Clothianidin]
Kill in % after 21 d (2 ppm): 0%

O=[N+]([O-])/N=C1\NCCN1Cc1ccc(Cl)nc1 [Imidacloprid]
Kill in % after 21 d (2 ppm): 0%

CNC(=O)O/N=C(\SC)C(=O)N(C)C [Oxamyl, oxamyl]
Kill in % after 21 d (0.125 ppm): 24%
